Results as given in patent US11535607B2, “Isoindolines as HDAC inhibitors” (Valo Health, Inc., priority 2018, dated 2022).
Counter-ions that a name gives are not always drawn.

target: full-length human HDAC11 (Homo sapiens (Human), UniProt Q96DB2); test: Probe binding HDAC11 time resolved fluorescence (TRF) assay; settings: Table 2, read-out: HDAC11 IC50 Range
Method: The probe binding HDAC11 assay was performed using a time resolved fluorescence (TRF) assay format. Recombinant N-terminal GST tag full-length human HD AC 11 was expressed and purified from baculovirus in Sf9 insect cells (SignalChem, #H93-30G-1000). […] 4 μL of 2× probe and 2× anti-GST Terbium (Cisbio, #61GSTXLB) was added to assay plates followed by 4 μL of 2×HDAC11.
Data from HD AC 11 Assays were reported as percent inhibition (inh) compared with control wells based on the following equation: % inh=1−((FLU−AveLow)/(AveHigh−AveLow)) where FLU=measured time resolved fluorescence. AveLow=average time resolved fluorescence of no enzyme control (n=32). AveHigh=average time resolved fluorescence of DMSO control (n=32). IC50 values were determined by curve fitting of the standard 4 parameter logistic fitting algorithm included in the Activity Base software package: IDBS XE Designer Model205. Data is fitted using the Levenburg Marquardt algorithm.

Chain of full-length human HDAC11 (Q96DB2 whole entry): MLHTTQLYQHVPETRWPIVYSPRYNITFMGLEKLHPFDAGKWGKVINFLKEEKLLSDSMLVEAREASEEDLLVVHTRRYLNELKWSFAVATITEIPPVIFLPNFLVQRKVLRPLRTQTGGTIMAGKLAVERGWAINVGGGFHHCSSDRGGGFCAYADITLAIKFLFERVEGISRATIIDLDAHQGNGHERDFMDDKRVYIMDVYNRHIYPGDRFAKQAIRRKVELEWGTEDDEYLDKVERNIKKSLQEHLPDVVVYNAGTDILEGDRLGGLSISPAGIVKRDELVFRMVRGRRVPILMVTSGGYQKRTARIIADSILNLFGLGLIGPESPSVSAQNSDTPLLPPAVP

SMILES	IC50 [nM]
O=C(NO)c1cccc2c1CN(c1nc3c([nH]1)C[C@H](C(F)(F)F)CC3)C2 (single isomer, unassigned) [Compound 2-1, hydrochloride]	< 500
O=C(NO)c1cccc2c1CN(c1nc3c([nH]1)C[C@@H](C(F)(F)F)CC3)C2 (single isomer, unassigned) [Compound 2-2, hydrochloride]	< 500
O=C(NO)c1cccc2c1CN(c1nc3c([nH]1)CC(C(F)(F)F)CC3)C2 (stereo not shown) [Compound 1-1, N-hydroxy-2-(5-(trifluoromethyl)-4,5,6,7-tetrahydro-1H-benzo[d]imidazol-2-yl)isoindoline-4-carboxamide]	< 500
CCCc1cnc(N2Cc3cccc(C(=O)NO)c3C2)[nH]1 [Compound 1-3, N-hydroxy-2-(5-propyl-1H-imidazol-2-yl)isoindoline-4-carboxamide]	> 1000
CC1(C)CCc2nc(N3Cc4cccc(C(=O)NO)c4C3)[nH]c2C1 [Compound 1-5, 2-(5,5-dimethyl-4,5,6,7-tetrahydro-1H-benzo[d]imidazol-2-yl)-N-hydroxyisoindoline-4-carboxamide hydrochloride]	500 to 1000
COCCn1c(N2Cc3cccc(C(=O)NO)c3C2)nc2ccccc21 [Compound 1-7, N-hydroxy-2-(1-(2-methoxyethyl)-1H-benzo[d]imidazol-2-yl)isoindoline-4-carboxamide]	> 1000
O=C(NO)c1cccc2c1CN(c1nc3ccncc3[nH]1)C2 [Compound 3-1, N-hydroxy-2-(3H-imidazo[4,5-c]pyridin-2-yl)isoindoline-4-carboxamide]	> 1000
O=C(NO)c1cccc2c1CN(c1nc3cccnc3[nH]1)C2 [Compound 4-1, N-hydroxy-2-(3H-imidazo[4,5-b]pyridin-2-yl)isoindoline-4-carboxamide]	> 1000
O=C(NO)c1cccc2c1CN(c1nc3ncccc3o1)C2 [Compound 5-1, N-hydroxy-2-(oxazolo[4,5-b]pyridin-2-yl)isoindoline-4-carboxamide hydrochloride]	< 500
O=C(NO)c1cccc2c1CN(c1nc3ccncc3o1)C2 [Compound 5-2, N-hydroxy-2-(oxazolo[5,4-c]pyridin-2-yl)isoindoline-4-carboxamide]	> 1000
O=C(NO)c1cccc2c1CN(c1nc3cnccc3o1)C2 [Compound 6-1, N-hydroxy-2-(oxazolo[4,5-c]pyridin-2-yl)isoindoline-4-carboxamide hydrochloride]	500 to 1000
O=C(NO)c1cccc2c1CN(c1nc3cccnc3o1)C2 [Compound 6-2, N-hydroxy-2-(oxazolo[5,4-b]pyridin-2-yl)isoindoline-4-carboxamide]	> 1000
O=C(NO)c1cccc2c1CN(c1ncc3ccccc3n1)C2 [Compound 7-1, N-hydroxy-2-(quinazolin-2-yl)isoindoline-4-carboxamide]	> 1000
O=C(NO)c1cccc2c1CN(c1ccc3ncccc3n1)C2 [Compound 7-3, N-hydroxy-2-(1,5-naphthyridin-2-yl)isoindoline-4-carboxamide]	> 1000
Cc1cnc(N2Cc3cccc(C(=O)NO)c3C2)[nH]1 [Compound 7-5, N-hydroxy-2-(5-methyl-1H-imidazol-2-yl)isoindoline-4-carboxamide]	> 1000
O=C(NO)c1cccc2c1CN(c1cnc3cccnc3c1)C2 [Compound 8-1, N-hydroxy-2-(1,5-naphthyridin-3-yl)isoindoline-4-carboxamide]	> 1000
O=C(NO)c1cccc2c1CN(c1ccc3c(c1)OCCN3)C2 [Compound 9-1, 2-(3,4-dihydro-2H-benzo[b][1,4]oxazin-7-yl)-N-hydroxyisoindoline-4-carboxamide hydrochloride]	500 to 1000
O=C(NO)c1cccc2c1CN(c1ccc3c(c1)NCCO3)C2 [Compound 9-2, 2-(3,4-dihydro-2H-benzo[b][1,4]oxazin-6-yl)-N-hydroxyisoindoline-4-carboxamide]	> 1000
O=C(NO)c1cccc2c1CN(c1nc3ncccc3s1)C2 [Compound 10-1, N-hydroxy-2-(thiazolo[4,5-b]pyridin-2-yl)isoindoline-4-carboxamide]	> 1000
O=C(NO)c1cccc2c1CN(c1nc3cc(C(F)(F)F)ccc3s1)C2 [Compound 11-1, N-hydroxy-2-(5-(trifluoromethyl)benzo[d]thiazol-2-yl)isoindoline-4-carboxamide]	< 500

SMILES	IC50 [nM]
O=C(NO)c1cccc2c1CN(c1nc3c([nH]1)CNCC3)C2 [Compound 13-1, N-hydroxy-2-(4,5,6,7-tetrahydro-3H-imidazo[4,5-c]pyridin-2-yl)isoindoline-4-carboxamide]	> 1000
CC(=O)N1CCc2nc(N3Cc4cccc(C(=O)NO)c4C3)[nH]c2C1 [Compound 14-1, 2-(5-acetyl-4,5,6,7-tetrahydro-3H-imidazo[4,5-c]pyridin-2-yl)-N-hydroxyisoindoline-4-carboxamide hydrochloride]	> 1000
O=C(NO)c1cccc2c1CN(c1nc3c(o1)CCC(C(F)(F)F)C3)C2 (stereo not shown) [Compound 16-1, N-hydroxy-2-(5-(trifluoromethyl)-4,5,6,7-tetrahydrobenzo[d]oxazol-2-yl)isoindoline-4-carboxamide]	< 500
CC1(C)c2cccc(C(=O)NO)c2CN1c1nc2ccc(C(F)(F)F)cc2o1 [Compound 18-3, N-hydroxy-1,1-dimethyl-2-(6-(trifluoromethyl)benzo[d]oxazol-2-yl)isoindoline-4-carboxamide]	< 500
CC1(C)c2cccc(C(=O)NO)c2CN1c1nc2c(o1)CCC(C(F)(F)F)C2 (stereo not shown) [Compound 19-1, N-hydroxy-1,1-dimethyl-2-[5-(trifluoromethyl)-4,5,6,7-tetrahydro-1,3-benzoxazol-2-yl]-2,3-dihydro-1H-isoindole-4-carboxamide]	< 500
CC1(C)c2cccc(C(=O)NO)c2CN1c1nc2c(o1)CC(C(F)(F)F)CC2 (stereo not shown) [Compound 19-2, N-hydroxy-1,1-dimethyl-2-(6-(trifluoromethyl)-4,5,6,7-tetrahydrobenzo[d]oxazol-2-yl)isoindoline-4-carboxamide]	< 500
CC1(C)c2cccc(C(=O)NO)c2CN1c1nc2ncccc2s1 [Compound 20-1, N-hydroxy-1,1-dimethyl-2-(thiazolo[4,5-b]pyridin-2-yl)isoindoline-4-carboxamide]	> 1000
CC1(C)c2cccc(C(=O)NO)c2CN1c1nc2cc(C(F)(F)F)ccc2s1 [Compound 20-2, N-hydroxy-1,1-dimethyl-2-(5-(trifluoromethyl)benzo[d]thiazol-2-yl)isoindoline-4-carboxamide]	< 500
CC1(C)c2cccc(C(=O)NO)c2CN1c1nc2cnccc2o1 [Compound 21-1, N-hydroxy-1,1-dimethyl-2-(oxazolo[4,5-c]pyridin-2-yl)isoindoline-4-carboxamide]	< 500
CC1(C)c2cccc(C(=O)NO)c2CN1c1nc2ccccc2s1 [Compound 22-1, 2-(benzo[d]thiazol-2-yl)-N-hydroxy-1,1-dimethylisoindoline-4-carboxamide]	< 500
CC1(C)c2cccc(C(=O)NO)c2CN1c1ccc2ccccc2n1 [Compound 22-5, N-hydroxy-1,1-dimethyl-2-(quinolin-2-yl)isoindoline-4-carboxamide]	< 500
CC1(C)c2cccc(C(=O)NO)c2CN1c1nc(C(F)(F)F)cs1 [Compound 22-9, N-hydroxy-1,1-dimethyl-2-(4-(trifluoromethyl)thiazol-2-yl)isoindoline-4-carboxamide]	> 1000
CC1(C)c2cccc(C(=O)NO)c2CN1c1ccc2cc(C(F)(F)F)ccc2n1 [Compound 23-1, N-hydroxy-1,1-dimethyl-2-(6-(trifluoromethyl)quinolin-2-yl)isoindoline-4-carboxamide]	< 500
CC1(C)c2cccc(C(=O)NO)c2CN1c1ccc2ccc(C(F)(F)F)cc2n1 [Compound 23-2, N-hydroxy-1,1-dimethyl-2-(7-(trifluoromethyl)quinolin-2-yl)isoindoline-4-carboxamide]	500 to 1000
CC1(C)c2cccc(C(=O)NO)c2CN1c1ccc2nc(C(F)(F)F)ccc2n1 [Compound 24-1, N-hydroxy-1,1-dimethyl-2-(6-(trifluoromethyl)-1,5-naphthyridin-2-yl)isoindoline-4-carboxamide]	< 500
CC1(C)c2cccc(C(=O)NO)c2CN1c1nc2ccccc2o1 [Compound 25-1, 2-(benzo[d]oxazol-2-yl)-N-hydroxy-1,1-dimethylisoindoline-4-carboxamide]	< 500
CC1(C)c2cccc(C(=O)NO)c2CN1c1nc2nc(C(F)(F)F)ccc2o1 [Compound 26-1, N-hydroxy-1,1-dimethyl-2-(5-(trifluoromethyl)oxazolo[4,5-b]pyridin-2-yl)isoindoline-4-carboxamide]	< 500
CC1(C)c2cccc(C(=O)NO)c2CN1c1nc2ncc(C(F)(F)F)cc2o1 [Compound 26-2, N-hydroxy-1,1-dimethyl-2-(6-(trifluoromethyl)oxazolo[4,5-b]pyridin-2-yl)isoindoline-4-carboxamide]	< 500
CC1(C)c2cccc(C(=O)NO)c2CN1c1ccc(C(F)(F)F)c(C#N)n1 [Compound 27-1, 2-(6-cyano-5-(trifluoromethyl)pyridin-2-yl)-N-hydroxy-1,1-dimethylisoindoline-4-carboxamide]	< 500
CC1(C)c2cccc(C(=O)NO)c2CN1c1cc(C#N)c(C(F)(F)F)cn1 [Compound 27-2, 2-(4-cyano-5-(trifluoromethyl)pyridin-2-yl)-N-hydroxy-1,1-dimethylisoindoline-4-carboxamide]	< 500
